Laboratory results taken from the RepoRT retention time repository (doi:10.1016/j.jchromb.2020.122105).

Columns and labels:
Details in all cases: stereoisomer not certain
[1] = RP, Waters CORTECS T3, 100 × 2.1 mm, 2.7 µm, 0.2 mL/min, estimated dead time 1.1 min; A: water + 0.1% formic acid, pH 3; B: methanol + 0.1% formic acid, pH 3; gradient (min/%B) 0/0 1/0 6/5 30/100 35/100 35.1/0 40/0
[2] = RP, Waters CORTECS T3, 100 × 2.1 mm, 2.7 µm, 0.3 mL/min, estimated dead time 0.73 min; A: water + 0.1% formic acid, pH 3; B: methanol + 0.1% formic acid, pH 3; gradient (min/%B) 0/0 1/0 6/5 30/100 35/100 35.1/0 40/0
[3] = RP, Waters CORTECS T3, 100 × 2.1 mm, 2.7 µm, 0.1 mL/min, estimated dead time 2.2 min; A: water + 0.1% formic acid, pH 3; B: methanol + 0.1% formic acid, pH 3; gradient (min/%B) 0/5 5/5 25/95 25.1/100 35/100 35.1/5 45/5
[4] = RP, Waters CORTECS T3, 100 × 2.1 mm, 2.7 µm, 0.2 mL/min, estimated dead time 1.1 min; A: water + 0.1% formic acid, pH 3; B: methanol + 0.1% formic acid, pH 3; gradient (min/%B) 0/5 5/5 25/95 25.1/100 35/100 35.1/5 45/5
[5] = RP, Waters CORTECS T3, 100 × 2.1 mm, 2.7 µm, 0.15 mL/min, estimated dead time 1.5 min; A: water + 0.1% formic acid, pH 3; B: methanol + 0.1% formic acid, pH 3; gradient (min/%B) 0/5 5/5 25/95 25.1/100 35/100 35.1/5 45/5
[6] = RP, Waters CORTECS T3, 100 × 2.1 mm, 2.7 µm, 0.2 mL/min, estimated dead time 1.1 min; A: water + 0.045% formic acid + 0.11% ammonium hydroxide, pH 7; B: methanol; gradient (min/%B) 0/5 5/5 25/95 25.1/100 35/100 35.1/5 45/5
[7] = RP, Waters ACQUITY UPLC BEH C18, 100 × 2.1 mm, 1.7 µm, 0.1 mL/min, estimated dead time 2.2 min; A: water + 0.1% formic acid, pH 3; B: methanol + 0.1% formic acid, pH 3; gradient (min/%B) 0/5 5/5 25/95 25.1/100 35/100 35.1/5 45/5
[8] = as above; remark: listed apart in the source
[9] = RP, Waters ACQUITY UPLC BEH C18, 100 × 2.1 mm, 1.7 µm, 0.1 mL/min, estimated dead time 2.2 min; A: water + 0.045% formic acid + 0.11% ammonium hydroxide, pH 7; B: methanol; gradient (min/%B) 0/5 5/5 25/95 25.1/100 35/100 35.1/5 45/5
[10] = RP, Waters ACQUITY UPLC BEH C18, 100 × 2.1 mm, 1.7 µm, 0.2 mL/min, estimated dead time 1.1 min; A: water + 0.025% formic acid + 20 mM ammonium acetate + 0.055% ammonium hydroxide, pH 7; B: methanol; gradient (min/%B) 0/5 5/5 25/100 30/100 30.1/5 35/5
[11] = HILIC, Waters XBridge BEH Amide, 100 × 2.1 mm, 2.5 µm, 0.5 mL/min, estimated dead time 0.44 min; A: water + 0.1% acetic acid + 10 mM ammonium acetate, pH 4; B: 5% water + 95% acetonitrile + 0.1% acetic acid + 10 mM ammonium acetate, pH 4; gradient (min/%B) 0/95 5/95 20/57 25/57 30/95 40/95
[12] = RP, Thermo Scientific Hypercarb, 150 × 2.1 mm, 5 µm, 0.1 mL/min, estimated dead time 3.3 min; A: water + 0.1% formic acid, pH 3; B: methanol + 0.1% formic acid, pH 3; gradient (min/%B) 0/5 5/5 20/100 35/100 35.1/5 45/5

Structure (SMILES)	LC retention time [1]	LC retention time [2]	LC retention time [3]	LC retention time [4]	LC retention time [5]	LC retention time [6]	LC retention time [7]	LC retention time [8]	LC retention time [9]	LC retention time [10]	LC retention time [11]	LC retention time [12]
CC(C)=CCNc1ncnc2nc[nH]c12 [N6-(DELTA2-ISOPENTENYL)-ADENINE]	15.1 min	13.6 min	17 min	18.8 min	14.7 min	16.9 min	17.2 min	17.3 min	20.6 min	16.8 min	0.72 min	–
O=c1[nH]c(=O)c2[nH]cnc2[nH]1 [XANTHINE]	3.32 min	2.39 min	4.3 min	–	3.01 min	–	2.82 min	2.72 min	–	–	6.47 min	–
Cc1cc2nc3c(=O)[nH]c(=O)nc-3n(CC(O)C(O)C(O)CO)c2cc1C (stereo not drawn) [RIBOFLAVIN]	14.7 min	13.5 min	16 min	17.7 min	14.1 min	13.2 min	15.7 min	15.7 min	15.7 min	12.7 min	–	–
O=C(O)c1cc(=O)c2ccccc2[nH]1 [4-HYDROXY-2-QUINOLINECARBOXYLIC ACID]	12.3 min	10.8 min	14.2 min	15.8 min	12.1 min	7.9 min	–	14.3 min	11.7 min	8.26 min	8.25 min	–
N[C@@H](Cc1cc(I)c(Oc2ccc(O)cc2)c(I)c1)C(=O)O [3,5-DIIODO-L-THYRONINE]	19.2 min	18 min	19.9 min	22.3 min	18.1 min	17.2 min	–	20.2 min	20.4 min	17.1 min	–	–
CC(C)(CO)C(O)C(=O)NCCC(=O)O [D-PANTOTHENIC ACID]	9.6 min	8.1 min	11.2 min	13 min	9.08 min	–	11.6 min	–	–	–	–	21.3 min
O=C(O)c1cc(=O)c2cccc(O)c2[nH]1 [XANTHURENIC ACID]	12.1 min	10.5 min	13.9 min	15.5 min	11.8 min	–	14 min	13.8 min	–	–	–	–
CC(=O)N[C@H](Cc1c[nH]c2ccccc12)C(=O)O [N-ACETYL-D-TRYPTOPHAN]	15.7 min	14.2 min	17.3 min	19.2 min	15.2 min	10.4 min	17.6 min	–	14.1 min	–	8.11 min	–
Nc1nc2nccnc2c(=O)[nH]1 [PTERIN]	–	3.11 min	4.93 min	8.07 min	3.45 min	1.35 min	4.74 min	2.72 min	–	–	4.98 min	–
CC1NC(=O)NC1CCCCCC(=O)O (stereo not drawn) [DETHIOBIOTIN]	15.7 min	14.3 min	17.1 min	19 min	15.1 min	9.32 min	17.2 min	–	12.5 min	9.58 min	–	30 min
